According to article PMC6691788, “Design and synthesis of phthalazine-based compounds as potent anticancer agents with potential antiangiogenic activity via VEGFR-2 inhibition” (Journal of Enzyme Inhibition and Medicinal Chemistry, 2019):

Key:
HT29 = assay: NCI 60 cell panel SRB screen; format: cell-based; conditions: Homo sapiens, HT-29; for GI50 / IC (TGI) / CC50: HT29, 5 log dose; for CC50: 48 h, read-out: LC50 (the source's name); for activity at 10 µM: HT29, single dose 10 μM, read-out: percent cell growth promotion
CAKI-1 = assay: NCI 60 cell panel SRB screen; format: cell-based, human; conditions: Homo sapiens; CAKI-1, single dose 10 μM; read-out: percent cell growth promotion
SW-620 = assay: NCI 60 cell panel SRB screen; format: cell-based; conditions: Homo sapiens; for GI50 / IC (TGI) / CC50: SW-620, 5 log dose; for CC50: 48 h, read-out: LC50 (the source's name); for activity at 10 µM: SW-620, single dose 10 μM, read-out: percent cell growth promotion
NCI/ADR-RES = assay: NCI 60 cell panel SRB screen; format: cell-based; conditions: Homo sapiens; for GI50 / IC (TGI) / CC50: 5 log dose; for CC50: 48 h, read-out: LC50 (the source's name); for activity at 10 µM: single dose 10 μM, read-out: percent cell growth promotion
MDA-MB 231/ATCC = assay: NCI 60 cell panel SRB screen; format: cell-based; conditions: Homo sapiens; for GI50 / CC50: MDA-MB-231; for IC (TGI): MDA-MB-231, read-out: TGI; for activity at 10 µM: MDA-MB-231, read-out: percent cell growth promotion; for CC50: MDA-MDA 231/ATCC, 5 log dose, 48 h, read-out: LC50 (the source's name)
HOP-92 = assay: NCI 60 cell panel SRB screen; format: cell-based; conditions: Homo sapiens; for GI50 / IC (TGI) / CC50: HOP-92, 5 log dose; for CC50: 48 h, read-out: LC50 (the source's name); for activity at 10 µM: HOP-92, single dose 10 μM, read-out: percent cell growth promotion
SN12C = assay: NCI 60 cell panel SRB screen; format: cell-based; conditions: Homo sapiens; for GI50 / IC (TGI) / CC50: 5 log dose; for CC50: 48 h, read-out: LC50 (the source's name); for activity at 10 µM: single dose 10 μM, read-out: percent cell growth promotion
SK-MEL-28 = assay: NCI 60 cell panel SRB screen; format: cell-based; conditions: Homo sapiens; for GI50: SK-MEL-28; for IC (TGI): SK-MEL-28, read-out: TGI; for activity at 10 µM: SK-MEL-28, read-out: percent cell growth promotion; for CC50: SK-MEL-28, 5 log dose, 48 h, read-out: LC50 (the source's name)
VEGFR-2 tyrosine kinase = target: T1, VEGFR-2 tyrosine kinase (Homo sapiens, UniProt P35968); assay: In vitro VEGFR-2 tyrosine kinase assay (BPS Bioscience); format: biochemical; conditions: read-out: VEGFR-2 % inhibition; 10 μM concentration
T1 construct: purchased BPS Bioscience 40301
T1 sequence (P35968 20-1356): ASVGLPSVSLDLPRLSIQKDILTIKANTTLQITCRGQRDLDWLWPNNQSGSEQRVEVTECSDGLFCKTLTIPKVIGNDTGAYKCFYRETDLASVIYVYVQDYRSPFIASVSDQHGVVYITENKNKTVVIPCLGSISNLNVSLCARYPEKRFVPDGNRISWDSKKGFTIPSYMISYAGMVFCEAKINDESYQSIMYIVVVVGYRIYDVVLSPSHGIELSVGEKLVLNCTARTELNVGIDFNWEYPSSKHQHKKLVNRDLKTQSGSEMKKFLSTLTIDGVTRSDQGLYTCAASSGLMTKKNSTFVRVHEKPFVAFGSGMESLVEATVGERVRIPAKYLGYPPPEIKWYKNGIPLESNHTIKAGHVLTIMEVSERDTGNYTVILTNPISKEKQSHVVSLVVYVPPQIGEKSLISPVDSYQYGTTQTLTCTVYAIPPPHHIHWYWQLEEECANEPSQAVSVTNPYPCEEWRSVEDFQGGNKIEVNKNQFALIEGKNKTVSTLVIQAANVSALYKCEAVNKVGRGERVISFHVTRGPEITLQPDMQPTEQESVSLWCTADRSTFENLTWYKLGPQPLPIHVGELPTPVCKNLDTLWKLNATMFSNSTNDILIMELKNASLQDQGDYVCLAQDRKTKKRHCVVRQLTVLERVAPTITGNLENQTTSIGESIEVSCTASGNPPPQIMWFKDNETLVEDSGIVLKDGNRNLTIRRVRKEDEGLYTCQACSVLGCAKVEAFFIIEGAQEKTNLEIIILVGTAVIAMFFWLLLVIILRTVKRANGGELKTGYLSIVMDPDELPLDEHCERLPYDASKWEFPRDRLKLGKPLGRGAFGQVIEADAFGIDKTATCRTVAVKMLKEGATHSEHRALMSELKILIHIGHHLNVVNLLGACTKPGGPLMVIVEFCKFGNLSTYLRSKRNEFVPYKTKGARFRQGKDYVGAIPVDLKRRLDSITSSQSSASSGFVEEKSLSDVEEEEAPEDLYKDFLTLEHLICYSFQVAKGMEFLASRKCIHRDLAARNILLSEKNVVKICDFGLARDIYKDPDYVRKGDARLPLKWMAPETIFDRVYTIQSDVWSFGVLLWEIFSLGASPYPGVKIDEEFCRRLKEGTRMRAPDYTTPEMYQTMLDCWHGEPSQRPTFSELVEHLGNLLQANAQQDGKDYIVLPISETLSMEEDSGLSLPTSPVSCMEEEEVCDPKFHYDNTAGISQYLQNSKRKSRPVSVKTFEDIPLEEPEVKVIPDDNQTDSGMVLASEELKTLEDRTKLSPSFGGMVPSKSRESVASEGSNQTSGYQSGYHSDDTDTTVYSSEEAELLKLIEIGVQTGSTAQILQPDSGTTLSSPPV
How it was run: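 Single-point screen at 10 µM: recombinant VEGFR with poly(Glu,Tyr) 0.2 mg/ml, 10 μM ATP, Tris pH 7.4, MgCl2, BSA, 1% DMSO, 40 min at 30 °C; residual ATP read by Kinase-Glo Plus luminescence.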

HS 578T = assay: NCI 60 cell panel SRB screen; format: cell-based; conditions: Homo sapiens; for GI50 / IC (TGI) / activity at 10 µM: Hs-578T; for IC (TGI): read-out: TGI; for activity at 10 µM: read-out: percent cell growth promotion; for CC50: HS 578T, 5 log dose, 48 h, read-out: LC50 (the source's name)
OVCAR-8 = assay: NCI 60 cell panel SRB screen; format: cell-based; conditions: Homo sapiens; for GI50 / IC (TGI) / CC50: OVCAR-8, 5 log dose; for CC50: 48 h, read-out: LC50 (the source's name); for activity at 10 µM: OVCAR-8, single dose 10 μM, read-out: percent cell growth promotion
HOP-62 = assay: NCI 60 cell panel SRB screen; format: cell-based; conditions: Homo sapiens; for GI50 / IC (TGI) / CC50: HOP-62, 5 log dose; for CC50: 48 h, read-out: LC50 (the source's name); for activity at 10 µM: HOP-62, single dose 10 μM, read-out: percent cell growth promotion
OVCAR-4 = assay: NCI 60 cell panel SRB screen; format: cell-based; conditions: Homo sapiens; for GI50 / IC (TGI) / CC50: OVCAR-4, 5 log dose; for CC50: 48 h, read-out: LC50 (the source's name); for activity at 10 µM: OVCAR-4, single dose 10 μM, read-out: percent cell growth promotion
NCI-H322M = assay: NCI 60 cell panel SRB screen; format: cell-based; conditions: Homo sapiens; for GI50 / IC (TGI) / CC50: 5 log dose; for CC50: 48 h, read-out: LC50 (the source's name); for activity at 10 µM: single dose 10 μM, read-out: percent cell growth promotion
SF-268 = assay: NCI 60 cell panel SRB screen; format: cell-based; conditions: Homo sapiens; for GI50 / IC (TGI) / CC50: SF-268, 5 log dose; for CC50: 48 h, read-out: LC50 (the source's name); for activity at 10 µM: SF-268, single dose 10 μM, read-out: percent cell growth promotion
MOLT-4 = assay: NCI 60 cell panel SRB screen; format: cell-based; conditions: Homo sapiens; for GI50 / IC (TGI) / CC50: MOLT-4, 5 log dose; for CC50: 48 h, read-out: LC50 (the source's name); for activity at 10 µM: MOLT-4, single dose 10 μM, read-out: percent cell growth promotion
A549/ATCC = assay: NCI 60 cell panel SRB screen; format: cell-based; conditions: Homo sapiens; for GI50 / IC (TGI) / LC50 (concentration killing 50% of cells): 5 log dose; for LC50 (concentration killing 50% of cells): 48 h; for activity at 10 µM: single dose 10 μM, read-out: percent cell growth promotion
UACC-257 = assay: NCI 60 cell panel SRB screen; format: cell-based; conditions: Homo sapiens; for GI50: UACC-257; for IC (TGI): UACC-257, read-out: TGI; for activity at 10 µM: UACC-257, read-out: percent cell growth promotion; for CC50: UACC-257, 5 log dose, 48 h, read-out: LC50 (the source's name)
UO-31 = assay: NCI 60 cell panel SRB screen; format: cell-based; conditions: Homo sapiens; for GI50 / IC (TGI) / CC50: UO-31, 5 log dose; for CC50: 48 h, read-out: LC50 (the source's name); for activity at 10 µM: UO-31, single dose 10 μM, read-out: percent cell growth promotion
A498 = assay: NCI 60 cell panel SRB screen; format: cell-based; conditions: Homo sapiens; for GI50 / IC (TGI) / CC50: A498, 5 log dose; for CC50: 48 h, read-out: LC50 (the source's name); for activity at 10 µM: A498, single dose 10 μM, read-out: percent cell growth promotion

## COc1cccc(NCc2nnc(Nc3ccc(Cl)cc3)c3ccccc23)c1 [Compound 16d, N-(4-Chlorophenyl)-4-((3-methoxyphenylamino)methyl)phthalazin-1-amine]
HT29
  GI50: 0.34 µM
  IC (TGI): 3.62 µM
  CC50: 12 µM
  activity at 10 µM: -21%
CAKI-1
  activity at 10 µM: 9.01%
SW-620
  GI50: 2.98 µM
  IC (TGI): 8.13 µM
  CC50: 22.2 µM
  activity at 10 µM: 11.9%
NCI/ADR-RES
  GI50: 2.55 µM
  IC (TGI): > 25 µM
  CC50: > 25 µM
  activity at 10 µM: -5.42%
MDA-MB 231/ATCC
  GI50: 1.32 µM
  IC (TGI): 6.32 µM
  activity at 10 µM: -27.1%
  CC50: 19.7 µM
HOP-92
  GI50: 0.32 µM
  IC (TGI): 2.91 µM
  CC50: > 25 µM
  activity at 10 µM: -32.8%
SN12C
  GI50: 2.52 µM
  IC (TGI): 11 µM
  CC50: > 25 µM
  activity at 10 µM: 14.5%
SK-MEL-28
  GI50: 2.62 µM
  IC (TGI): 6.17 µM
  activity at 10 µM: -16.1%
  CC50: 14.5 µM
VEGFR-2 tyrosine kinase
  inhibition at 10 µM: 24%
HS 578T
  GI50: 2.9 µM
  IC (TGI): 11.5 µM
  activity at 10 µM: 0.54%
  CC50: > 25 µM
OVCAR-8
  GI50: 3.61 µM
  IC (TGI): 14.7 µM
  CC50: > 25 µM
  activity at 10 µM: 3.02%
HOP-62
  GI50: 2.06 µM
  IC (TGI): 8.48 µM
  CC50: > 25 µM
  activity at 10 µM: -17.1%
OVCAR-4
  GI50: 1.33 µM
  IC (TGI): 17.6 µM
  CC50: > 25 µM
  activity at 10 µM: 17.2%
NCI-H322M
  GI50: 1.4 µM
  IC (TGI): 7.85 µM
  CC50: > 25 µM
  activity at 10 µM: 3.32%
SF-268
  GI50: 2.05 µM
  IC (TGI): 10.5 µM
  CC50: > 25 µM
  activity at 10 µM: 2.52%
MOLT-4
  GI50: 1.1 µM
  IC (TGI): 7.57 µM
  CC50: > 25 µM
  activity at 10 µM: -27.2%
A549/ATCC
  GI50: 1.93 µM
  IC (TGI): 9.42 µM
  LC50 (concentration killing 50% of cells): > 25 µM
  activity at 10 µM: 2.56%
UACC-257
  GI50: 2.04 µM
  IC (TGI): 5.28 µM
  activity at 10 µM: -39.7%
  CC50: 11.6 µM
UO-31
  GI50: 0.6 µM
  IC (TGI): 5.28 µM
  CC50: > 25 µM
  activity at 10 µM: -42.5%
A498
  GI50: 1.27 µM
  IC (TGI): 4.42 µM
  CC50: 11.5 µM
  activity at 10 µM: -26.8%

## Clc1ccc(Nc2nnc(COc3ccccc3)c3ccccc23)cc1 [Compound 17a, N-(4-Chlorophenyl)-4-(phenoxymethyl)phthalazin-1-amine]
HT29
  GI50: 0.42 µM
  IC (TGI): 4.25 µM
  CC50: 17.4 µM
  activity at 10 µM: 1.32%
CAKI-1
  activity at 10 µM: 15.4%
SW-620
  GI50: 2.86 µM
  IC (TGI): 7.79 µM
  CC50: 21.2 µM
  activity at 10 µM: 15.4%
NCI/ADR-RES
  GI50: 2.62 µM
  IC (TGI): 16.6 µM
  CC50: > 25 µM
  activity at 10 µM: -1.13%
MDA-MB 231/ATCC
  GI50: 1.28 µM
  IC (TGI): 6.9 µM
  activity at 10 µM: 11.4%
  CC50: 24.8 µM
HOP-92
  GI50: 0.33 µM
  IC (TGI): 3.09 µM
  CC50: > 25 µM
  activity at 10 µM: -28%
SN12C
  GI50: 2.12 µM
  IC (TGI): 8.07 µM
  CC50: > 25 µM
  activity at 10 µM: 17%
SK-MEL-28
  GI50: 2.84 µM
  IC (TGI): 7.23 µM
  activity at 10 µM: 4.73%
  CC50: 18.4 µM
VEGFR-2 tyrosine kinase
  inhibition at 10 µM: 31%
HS 578T
  GI50: 2.58 µM
  IC (TGI): 10.5 µM
  activity at 10 µM: 14.4%
  CC50: > 25 µM
OVCAR-8
  GI50: 3.49 µM
  IC (TGI): 15 µM
  CC50: > 25 µM
  activity at 10 µM: 5.02%
HOP-62
  GI50: 2.51 µM
  IC (TGI): 7.74 µM
  CC50: 23.9 µM
  activity at 10 µM: 13.1%
OVCAR-4
  GI50: 2.09 µM
  IC (TGI): > 25 µM
  CC50: > 25 µM
  activity at 10 µM: 18.1%
NCI-H322M
  GI50: 1.56 µM
  IC (TGI): 8.2 µM
  CC50: > 25 µM
  activity at 10 µM: 21.1%
SF-268
  GI50: 2.23 µM
  IC (TGI): 12.9 µM
  CC50: > 25 µM
  activity at 10 µM: 13.2%
MOLT-4
  GI50: 1.06 µM
  IC (TGI): 6.7 µM
  CC50: > 25 µM
  activity at 10 µM: -32.6%
A549/ATCC
  GI50: 2.87 µM
  IC (TGI): 12.3 µM
  LC50 (concentration killing 50% of cells): > 25 µM
  activity at 10 µM: 4.64%
UACC-257
  GI50: 2.54 µM
  IC (TGI): 5.82 µM
  activity at 10 µM: -24.9%
  CC50: 13.4 µM
UO-31
  GI50: 0.72 µM
  IC (TGI): 5.2 µM
  CC50: 23.9 µM
  activity at 10 µM: -12.3%
A498
  GI50: 0.68 µM
  IC (TGI): 3.64 µM
  CC50: 10.6 µM
  activity at 10 µM: -17.3%
